The values that follow come from patent publication US12157736B2, “Spiro-lactam NMDA modulators and methods of using same” (Tenacia Biotechnology (Hong Kong) Co., Limited, priority 2016, dated 2024).

The target of test [1] is T1, NMDAR2B (Homo sapiens, UniProt Q13224).
T1 construct: expressed in transfected cells; host or cells: HEK cells (membrane extract)
The experiment in a line: NMDAR agonist assay, [3H]MK-801 binding, NMDAR2B expressing HEK cell membranes. The class given is biochemical. As to conditions: 50 μM glutamate; for EC50: read-out: NMDAR2B log EC50 (converted); for Emax: read-out: NMDAR2B: % maximal [3H]MK-801 binding relative to 1 mM glycine. On the procedure: (§1) Assays were conducted as described by Moskal et al., “GLYX-13: a monoclonal antibody-derived peptide that acts as an N-methyl-D-aspartate receptor modulator,” Neuropharmacology, 49, 1077-87, 2005. These studies were designed to determine if the test compounds act to facilitate NMDAR activation in NMDAR2A, NMDAR2B, NMDAR2C or NMDAR2D expressing HEK cell membranes as measured by increases in [^3H]MK-801 binding.
(§2) In the assay, 300 μg of NMDAR expressing HEK cell membrane extract protein was preincubated for 15 minutes at 25° C. in the presence of saturating concentrations of glutamate (50 μM) and varying concentrations of test compound (1×10^−15M−1×10^−7M), or 1 mM glycine. Following the addition of […] of [^3H]MK-801 (22.5 Ci/mmol), reactions were again incubated for 15 minutes at 25° C. (nonequilibrium conditions). Bound and free [^3H]MK-801 were separated via rapid filtration using a Brandel apparatus.
(§3) In analyzing the data, the DPM (disintegrations per minute) of [^3H]MK-801 remaining on the filter were measured for each concentration of test compound or for 1 mM glycine. The DPM values for each concentration of a ligand (N=2) were averaged. The baseline value was determined from the best fit curve of the DPM values modeled using the GraphPad program and the log(agonist) vs. response (three parameters) algorithm was then subtracted from all points in the dataset. The % maximal [3H]MK-801 binding was then calculated relative to that of 1 mM glycine: all baseline subtracted DPM values were divided by the average value for 1 mM glycine. The EC50 and % maximal activity were then obtained from the best fit curve of the % maximal [3H]MK-801 binding data modelled using the GraphPad program and the log(agonist) vs. response (three parameters) algorithm.
(§4) The tables below summarize the results for the wild type […] NMDAR2A, NMDAR2B, NMDAR2C, and NMDAR2D, and whether the compound is not an agonist (−), is an agonist (+), or is a strong agonist (++), where column A is based on the % maximal [3H]MK-801 binding relative to 1 mM glycine (−=0; <100%=+; and >100%=++); and column B is based on log EC50 values (0=−; ≥1×10^−9 M (e.g., −8)=+; and <1×10^−9 M (e.g., −10)=++).

The target in test [2] is T2, NMDAR2A (Homo sapiens, UniProt Q12879).
T2 construct: expressed in transfected cells; host or cells: HEK cells (membrane extract)
T2 sequence (Q12879 23-1464, species assumed, other chains not shown): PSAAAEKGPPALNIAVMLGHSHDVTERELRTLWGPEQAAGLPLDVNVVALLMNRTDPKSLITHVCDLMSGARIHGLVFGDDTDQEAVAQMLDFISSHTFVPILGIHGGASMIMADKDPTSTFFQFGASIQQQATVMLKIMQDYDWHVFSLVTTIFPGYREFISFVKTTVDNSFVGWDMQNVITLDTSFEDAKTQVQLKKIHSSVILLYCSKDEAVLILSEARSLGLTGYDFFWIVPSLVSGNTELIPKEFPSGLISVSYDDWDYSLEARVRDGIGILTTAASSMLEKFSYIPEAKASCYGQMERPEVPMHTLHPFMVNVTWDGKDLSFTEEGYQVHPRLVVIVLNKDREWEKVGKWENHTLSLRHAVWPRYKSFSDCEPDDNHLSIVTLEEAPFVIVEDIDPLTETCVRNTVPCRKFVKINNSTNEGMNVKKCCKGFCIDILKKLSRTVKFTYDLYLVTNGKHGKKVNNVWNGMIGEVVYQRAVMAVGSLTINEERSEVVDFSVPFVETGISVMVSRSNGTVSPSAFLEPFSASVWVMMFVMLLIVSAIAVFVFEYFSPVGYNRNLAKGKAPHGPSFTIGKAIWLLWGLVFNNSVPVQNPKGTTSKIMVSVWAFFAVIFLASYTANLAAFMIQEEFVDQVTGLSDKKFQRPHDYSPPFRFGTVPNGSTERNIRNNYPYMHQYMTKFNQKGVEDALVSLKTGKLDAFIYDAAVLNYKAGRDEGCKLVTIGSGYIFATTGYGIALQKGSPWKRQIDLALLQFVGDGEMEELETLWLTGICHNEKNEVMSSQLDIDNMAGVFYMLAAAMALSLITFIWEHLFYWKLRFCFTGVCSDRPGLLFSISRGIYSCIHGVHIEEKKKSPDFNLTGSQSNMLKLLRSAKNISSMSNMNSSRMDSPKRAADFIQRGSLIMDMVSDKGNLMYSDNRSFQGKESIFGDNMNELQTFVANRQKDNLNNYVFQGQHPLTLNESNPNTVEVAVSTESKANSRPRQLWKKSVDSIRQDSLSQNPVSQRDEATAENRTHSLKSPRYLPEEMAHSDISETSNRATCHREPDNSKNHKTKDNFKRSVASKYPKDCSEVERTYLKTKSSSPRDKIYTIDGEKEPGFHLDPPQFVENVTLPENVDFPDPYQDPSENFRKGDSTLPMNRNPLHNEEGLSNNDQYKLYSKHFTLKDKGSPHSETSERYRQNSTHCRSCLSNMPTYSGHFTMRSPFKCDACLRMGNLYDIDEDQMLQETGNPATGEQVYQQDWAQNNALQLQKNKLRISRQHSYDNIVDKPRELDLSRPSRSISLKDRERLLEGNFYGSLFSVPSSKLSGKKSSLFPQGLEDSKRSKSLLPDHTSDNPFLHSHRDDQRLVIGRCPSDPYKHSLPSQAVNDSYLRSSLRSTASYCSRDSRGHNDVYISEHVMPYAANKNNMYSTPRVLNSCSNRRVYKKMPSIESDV
The test can be described thus: NMDAR agonist assay, [3H]MK-801 binding, NMDAR2A expressing HEK cell membranes. The class given is biochemical. As to conditions: 50 μM glutamate; for Emax: read-out: NMDAR2A: % maximal [3H]MK-801 binding relative to 1 mM glycine; for EC50: read-out: NMDAR2A: log EC50 (converted). The protocol: as §1, §2, §3, §4

T1 sequence (Q13224 27-1484, species assumed, other chains not shown): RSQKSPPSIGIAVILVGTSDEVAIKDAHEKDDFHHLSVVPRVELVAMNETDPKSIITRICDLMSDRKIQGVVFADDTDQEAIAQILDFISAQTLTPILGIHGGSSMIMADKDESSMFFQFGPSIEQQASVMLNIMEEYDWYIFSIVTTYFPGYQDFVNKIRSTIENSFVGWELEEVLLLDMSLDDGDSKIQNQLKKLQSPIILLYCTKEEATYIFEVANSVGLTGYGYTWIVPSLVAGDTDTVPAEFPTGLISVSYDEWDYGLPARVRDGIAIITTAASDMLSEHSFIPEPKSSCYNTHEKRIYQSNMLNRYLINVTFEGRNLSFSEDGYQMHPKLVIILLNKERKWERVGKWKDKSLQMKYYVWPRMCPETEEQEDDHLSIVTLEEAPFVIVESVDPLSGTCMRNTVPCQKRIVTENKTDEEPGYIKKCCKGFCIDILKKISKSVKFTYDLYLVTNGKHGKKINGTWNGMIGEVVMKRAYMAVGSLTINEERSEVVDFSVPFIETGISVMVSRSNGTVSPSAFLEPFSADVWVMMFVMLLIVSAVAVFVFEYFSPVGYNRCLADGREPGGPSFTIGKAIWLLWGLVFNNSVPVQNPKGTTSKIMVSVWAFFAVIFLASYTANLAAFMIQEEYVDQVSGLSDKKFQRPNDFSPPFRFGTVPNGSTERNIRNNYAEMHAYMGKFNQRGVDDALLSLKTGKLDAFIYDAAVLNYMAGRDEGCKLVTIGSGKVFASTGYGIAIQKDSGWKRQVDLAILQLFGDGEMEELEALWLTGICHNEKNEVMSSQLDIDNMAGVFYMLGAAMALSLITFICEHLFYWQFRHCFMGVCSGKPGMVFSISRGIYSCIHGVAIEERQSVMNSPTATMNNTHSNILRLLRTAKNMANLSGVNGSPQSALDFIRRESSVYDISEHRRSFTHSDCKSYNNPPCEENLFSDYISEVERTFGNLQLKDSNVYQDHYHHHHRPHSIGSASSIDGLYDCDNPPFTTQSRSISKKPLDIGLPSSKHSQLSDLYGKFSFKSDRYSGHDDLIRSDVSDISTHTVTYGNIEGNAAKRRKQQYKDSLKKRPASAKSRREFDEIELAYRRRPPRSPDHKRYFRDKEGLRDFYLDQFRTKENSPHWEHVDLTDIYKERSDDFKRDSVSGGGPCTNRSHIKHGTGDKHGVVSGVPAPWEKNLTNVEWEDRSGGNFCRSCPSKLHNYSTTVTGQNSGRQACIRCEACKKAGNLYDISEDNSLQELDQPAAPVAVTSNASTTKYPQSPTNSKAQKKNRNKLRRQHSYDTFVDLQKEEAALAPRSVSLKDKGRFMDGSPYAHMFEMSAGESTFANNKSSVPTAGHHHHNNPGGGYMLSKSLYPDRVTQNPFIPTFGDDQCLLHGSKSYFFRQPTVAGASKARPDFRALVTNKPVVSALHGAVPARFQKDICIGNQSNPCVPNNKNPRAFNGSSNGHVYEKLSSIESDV

As to `COc1ccc(CN2CC3(CCNC(=S)C3)C2=S)cc1` (single isomer, unassigned) [CO, 2-(4-methoxybenzyl)-2,7-diazaspiro[3.5]nonane-1,6-dithione], in test [1], the EC50 is greater than 100 nM and the Emax was 0%. `CC1CC(=O)N(C)C12CN(CC(N)=O)C2=O` (single isomer, unassigned) [DI, 2-(5,8-dimethyl-1,6-dioxo-2,5-diazaspiro[3.4]octan-2-yl)acetamide]: in test [2], the Emax was less than 100%. As for `CC1CC(=O)N(c2ccc(F)cc2)C12CN(Cc1ccccc1)C2=O` (single isomer, unassigned) [BY, 2-benzyl-5-(4-fluorophenyl)-8-methyl-2,5-diazaspiro[3.4]octane-1,6-dione], the “NMDAR2A: % maximal [3H]MK-801 binding relative to 1 mM glycine” value in test [2] is reported as “− (−=0)”. Also, in test [1], the “NMDAR2B: % maximal [3H]MK-801 binding relative to 1 mM glycine” value is “− (−=0)” and the EC50 is greater than 100 nM. As for `COc1ccc(CN2CC3(CCNC(=S)C3)C2=O)cc1` (single isomer, unassigned) [CM, 2-(4-methoxybenzyl)-6-thioxo-2,7-diazaspiro[3.5]nonan-1-one], the EC50 in test [2] and in test [1] was greater than 100 nM throughout. In the case of `NC(=O)CN1CC2(CCNC(=O)C2)C1=O` (single isomer, unassigned) [DD, 2-(1,6-dioxo-2,7-diazaspiro[3.5]nonan-2-yl)acetamide], in test [2], the Emax is 0% and the EC50 was greater than 100 nM. Consider `CC1C(N)C(=O)N(C)C12CN(Cc1ccccc1)C2=O` (single isomer, unassigned) [CH, 7-amino-2-benzyl-5,8-dimethyl-2,5-diazaspiro[3.4]octane-1,6-dione], for which the “NMDAR2A: % maximal [3H]MK-801 binding relative to 1 mM glycine” value in test [2] is “− (−=0)”. In addition, in test [1], the “NMDAR2B: % maximal [3H]MK-801 binding relative to 1 mM glycine” value was “− (−=0)” and the EC50 was greater than 100 nM. For `C[C@@H](O)[C@@H](C(=O)N(C)C)N1CC2(CCNC(=O)C2)C1=O` (single isomer, unassigned) [CD], the Emax in test [2] is less than 100%. As for `CC1CC(=O)N(c2ccc(F)cc2)C12CN(CC(N)=O)C2=O` (single isomer, unassigned) [CF, 2-(5-(4-fluorophenyl)-8-methyl-1,6-dioxo-2,5-diazaspiro[3.4]octan-2-yl)acetamide], the “NMDAR2A: % maximal [3H]MK-801 binding relative to 1 mM glycine” value in test [2] is “− (−=0)”. The “NMDAR2B: % maximal [3H]MK-801 binding relative to 1 mM glycine” value in test [1] was “+ (<100%=+)”. Regarding `COc1ccc(CN2CC3(CCN(CC(C)C)C(=O)C3)C2=O)cc1` (single isomer, unassigned) [CT, 7-isobutyl-2-(4-methoxybenzyl)-2,7-diazaspiro[3.5]nonane-1,6-dione], in test [1], the EC50 is greater than 100 nM and the Emax amounted to 0%.

Take `COc1ccc(CN2CC3(CCN(CC(C)C)C(=O)C3)C2=O)cc1` (single isomer, unassigned) [CS, 7-isobutyl-2-(4-methoxybenzyl)-2,7-diazaspiro[3.5]nonane-1,6-dione]: the Emax in test [1] was greater than 100%.

With `NC(=O)CN1CC2(CCNC(=O)C2)C1=O` (single isomer, unassigned) [DC, 2-(1,6-dioxo-2,7-diazaspiro[3.5]nonan-2-yl)acetamide], the Emax in test [2] was less than 100%. `CC1CC(=O)N(c2ccc(F)cc2)C12CN([C@H](C(N)=O)[C@@H](C)O)C2=O` (single isomer, unassigned) [DL]: the “NMDAR2A: % maximal [3H]MK-801 binding relative to 1 mM glycine” value in test [2] is reported as “+ (<100%=+)”. The “NMDAR2B: % maximal [3H]MK-801 binding relative to 1 mM glycine” value in test [1] is listed as “− (−=0)”. As for `CCN1CCC2(CC1=O)CN(Cc1ccc(OC)cc1)C2=O` (single isomer, unassigned) [CK, 7-ethyl-2-(4-methoxybenzyl)-2,7-diazaspiro[3.5]nonane-1,6-dione], in test [2], the “NMDAR2A: % maximal [3H]MK-801 binding relative to 1 mM glycine” value is recorded as “− (−=0)” and the EC50 was greater than 100 nM. In test [1], the “NMDAR2B: % maximal [3H]MK-801 binding relative to 1 mM glycine” value is given as “− (−=0)” and the EC50 was greater than 100 nM.

As for `CNC(=O)[C@H]([C@@H](C)O)N1CC2(CCNC(=O)C2)C1=O` (single isomer, unassigned) [DB], the “NMDAR2A: % maximal [3H]MK-801 binding relative to 1 mM glycine” value in test [2] was “− (−=0)”. Besides, the “NMDAR2B: % maximal [3H]MK-801 binding relative to 1 mM glycine” value in test [1] is reported as “++ (>100%=++)”. Take `CC1CC(=O)N(c2ccc(F)cc2)C12CN([C@H](C(N)=O)[C@@H](C)O)C2=O` (single isomer, unassigned) [DK]: the EC50 in test [1] was greater than 100 nM. In the case of `COc1ccc(CN2CC3(CCNC(=S)C3)C2=S)cc1` (single isomer, unassigned) [CP, 2-(4-methoxybenzyl)-2,7-diazaspiro[3.5]nonane-1,6-dithione], the Emax in test [1] was less than 100%. For the compound `CC1C(O)C(=O)N(C)C12CN(Cc1ccccc1)C2=O` (single isomer, unassigned) [DM, 2-benzyl-7-hydroxy-5,8-dimethyl-2,5-diazaspiro[3.4]octane-1,6-dione], the EC50 in test [1] was greater than 100 nM. For the compound `CC1CC(=O)N(c2ccc(F)cc2)C12CN(CC(N)=O)C2=O` (single isomer, unassigned) [CE, 2-(5-(4-fluorophenyl)-8-methyl-1,6-dioxo-2,5-diazaspiro[3.4]octan-2-yl)acetamide], the EC50 in test [2] was greater than 100 nM. Further, in test [1], the “NMDAR2B: % maximal [3H]MK-801 binding relative to 1 mM glycine” value was “− (−=0)” and the EC50 was greater than 100 nM. Take `O=C1CC2(CCN1)CN(Cc1ccccc1)C2=O` (single isomer, unassigned) [CV, 2-benzyl-2,7-diazaspiro[3.5]nonane-1,6-dione]: in test [2], the Emax is less than 100%.

Consider `CN1CC2(CCNC(=O)C2)C1=O` (single isomer, unassigned) [DH, 2-methyl-2,7-diazaspiro[3.5]nonane-1,6-dione], for which, in test [1], the Emax was greater than 100%.

As for `CC1C(N)C(=O)N(C)C12CN(Cc1ccccc1)C2=O` (single isomer, unassigned) [CG, 7-amino-2-benzyl-5,8-dimethyl-2,5-diazaspiro[3.4]octane-1,6-dione], the EC50 in test [2] was greater than 100 nM. Also, the “NMDAR2B: % maximal [3H]MK-801 binding relative to 1 mM glycine” value in test [1] is given as “+ (<100%=+)”. Turning to `CCN1CCC2(CC1=O)CN(Cc1ccccc1)C2=O` (single isomer, unassigned) [CY, 2-benzyl-7-ethyl-2,7-diazaspiro[3.5]nonane-1,6-dione], in test [1], the EC50 is greater than 100 nM. As for `CC1CC(=O)N(C)C12CN(CC(N)=O)C2=O` (single isomer, unassigned) [DJ, 2-(5,8-dimethyl-1,6-dioxo-2,5-diazaspiro[3.4]octan-2-yl)acetamide], in test [2], the Emax came out at 0% and the EC50 was greater than 100 nM. Consider `CNC(=O)[C@H]([C@@H](C)O)N1CC2(CCNC(=O)C2)C1=O` (single isomer, unassigned) [DA], for which the EC50 in test [2] was greater than 100 nM. In test [1], the “NMDAR2B: % maximal [3H]MK-801 binding relative to 1 mM glycine” value was “− (−=0)” and the EC50 is greater than 100 nM. Take `C[C@@H](O)[C@@H](C(=O)NCc1ccccc1)N1CC2(CCNC(=O)C2)C1=O` (single isomer, unassigned) [CA]: the EC50 in test [2] and in test [1] was greater than 100 nM each time. Moreover, in test [1], the “NMDAR2B: % maximal [3H]MK-801 binding relative to 1 mM glycine” value is on record as “− (−=0)”. Turning to `CN1CCC2(CC1=O)CN(Cc1ccccc1)C2=O` (single isomer, unassigned) [CX, 2-benzyl-7-methyl-2,7-diazaspiro[3.5]nonane-1,6-dione], in test [2], the “NMDAR2A: % maximal [3H]MK-801 binding relative to 1 mM glycine” value is recorded as “+ (<100%=+)”. Moreover, the “NMDAR2B: % maximal [3H]MK-801 binding relative to 1 mM glycine” value in test [1] is reported as “+ (<100%=+)”. Regarding `COc1ccc(CN2CC3(CCN(C)C(=O)C3)C2=O)cc1` (single isomer, unassigned) [CJ, 2-(4-methoxybenzyl)-7-methyl-2,7-diazaspiro[3.5]nonane-1,6-dione], the Emax in test [1] is greater than 100%. As to `CN1CC2(CCNC(=O)C2)C1=O` (single isomer, unassigned) [DG, 2-methyl-2,7-diazaspiro[3.5]nonane-1,6-dione], in test [1], the EC50 is greater than 100 nM and the Emax came to 0%.

Consider `O=C1CC2(CCN1)CN(Cc1ccccc1)C2=O` (single isomer, unassigned) [CU, 2-benzyl-2,7-diazaspiro[3.5]nonane-1,6-dione], for which, in test [2], the Emax amounted to 0% and the EC50 was greater than 100 nM. Turning to `CC1CC(=O)N(c2ccc(F)cc2)C12CN(Cc1ccccc1)C2=O` (single isomer, unassigned) [BX, 2-benzyl-5-(4-fluorophenyl)-8-methyl-2,5-diazaspiro[3.4]octane-1,6-dione], in test [2], the half-maximal effective concentration (EC50) was greater than 100 nM. For the same compound, the “NMDAR2B: % maximal [3H]MK-801 binding relative to 1 mM glycine” value in test [1] is given as “+ (<100%=+)”.
